Results from US11319324B2, “Pyrazolo-pyrrolo-pyrimidine-dione derivatives as P2X3 inhibitors” (Bayer Aktiengesellschaft, priority 2017, dated 2022).

Legend:
Format in all cases: cell-based
human P2X2/3 receptors = biological target: T1, human P2X2/3 receptors (Homo sapiens, UniProt P56373+Q9UBL9); test: Intracellular calcium measurement, antagonist activity at human P2X2/3 receptors (hP2X23 1321N1), Fluo8; settings: for IC50: column 4); 1321N1 cells, human P2X2/3, Fluo8, agonist ATP at EC50; read-out: 4) hP2X2/3 IC50 [nM] (1321N1); for hP2X23/hP2X3* Selectivity (1321N1): ratio of column 4) hP2X2/3 to column 3) hP2X3, 1321N1
T1 construct: expressed in transfected cells; host or cells: human astrocytoma 1321N1 (1312N1 [sic])
T1 sequence (P56373 1-397): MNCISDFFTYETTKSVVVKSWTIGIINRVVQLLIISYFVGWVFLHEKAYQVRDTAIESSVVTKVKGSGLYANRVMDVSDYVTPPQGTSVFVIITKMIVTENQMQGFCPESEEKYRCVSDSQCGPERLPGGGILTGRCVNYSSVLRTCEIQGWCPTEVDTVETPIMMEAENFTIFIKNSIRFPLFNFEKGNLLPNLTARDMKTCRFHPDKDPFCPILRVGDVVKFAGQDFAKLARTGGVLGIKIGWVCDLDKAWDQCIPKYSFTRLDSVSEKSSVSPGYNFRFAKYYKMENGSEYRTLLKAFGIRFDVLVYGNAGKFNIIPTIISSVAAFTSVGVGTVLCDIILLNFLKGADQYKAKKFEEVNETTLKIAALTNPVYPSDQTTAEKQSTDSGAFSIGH
T1 sequence (Q9UBL9 1-471): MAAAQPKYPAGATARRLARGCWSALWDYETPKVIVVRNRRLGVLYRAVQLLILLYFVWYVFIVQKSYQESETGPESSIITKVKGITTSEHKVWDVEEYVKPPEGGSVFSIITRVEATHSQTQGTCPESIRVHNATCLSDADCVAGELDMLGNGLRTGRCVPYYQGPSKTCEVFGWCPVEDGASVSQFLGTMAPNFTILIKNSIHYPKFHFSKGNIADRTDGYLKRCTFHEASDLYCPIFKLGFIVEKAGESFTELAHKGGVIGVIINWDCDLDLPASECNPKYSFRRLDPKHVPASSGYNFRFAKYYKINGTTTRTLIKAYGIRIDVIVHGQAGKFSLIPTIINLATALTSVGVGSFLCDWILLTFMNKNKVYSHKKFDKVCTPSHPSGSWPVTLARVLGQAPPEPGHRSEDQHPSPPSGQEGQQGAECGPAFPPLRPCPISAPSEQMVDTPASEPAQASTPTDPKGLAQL
Description: (§1) 3) And 4) Intracellular Calcium Measurement to Compare Antagonist Activity at Human P2X3 Receptors (hP2X3 1321N1) and at Human P2X2/3 Receptors (hP2X23 1321N1)
(§2) The comparison of antagonistic activity at the P2X3 versus the P2X2/3 receptor of the compounds of the invention were performed by use of recombinant cell lines. These cell lines derived originally from the human astrocytoma cell line […] (Macintyre E H, Pontén J, Vatter A E. Acta Pathol Microbiol Scand A. 1972; 80(2):267-83). The cell lines are stably transfected with the human P2X3 receptor forming homotrimeric P2X3 receptors or are co-transfected with P2X2 and P2X3 forming heterotrimeric P2X2/3 receptors. Stimulation of the receptors with the agonist ATP leads to a conformational change of the receptors and influx of extracellular calcium ions through the open ion channel. The cytoplasmatic calcium transient is detected via the calcium sensitive dye Fluo8. The strength of Fluo8 fluorescence signal corresponds to the level of receptor activation. An inhibitor would decrease the signal depending on its potency and concentration. Fluorescence was measured by use of a suitable fluorescence reader.
(§3) On the day before the assay, the cells were plated in culture medium (DMEM high glucose, 10% FCS, 1% MEM non-essential amino acids, 4 mM Glutamax) in 384-well poly-D-lysine coated microtiter plates and kept in a cell incubator (96% humidity, 5% v/v CO2, 37° C.). On the day of the assay medium was exchanged by Fluo8 containing buffer and incubated for 60 minutes. Test compounds were added at various concentrations and plates were incubated for 10 minutes. In the fluorescence reader a 3 seconds baseline measurement was performed and the agonist ATP was applied at EC50 concentration of the respective receptor during constant fluorescence measurement for 120 seconds.

human P2X3 receptor [1] = biological target: T2, human P2X3 receptor (Homo sapiens, UniProt P56373); test: Intracellular calcium measurement to assess antagonist activity at human P2X3 receptors (hP2X3 CHO), photina luminescence; parameters: expressed in transfected cells; host or cells: Chinese hamster ovary (CHO) cells; settings: column 2), CHO cells, agonist α,β-methylene-ATP at EC50
T2 sequence (P56373 1-397): T1 sequence (P56373 1-397)
Method in brief: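 CHO cells stably expressing human P2X3 and mitochondrial photina, plated the day before at 30 °C, then loaded 3 h at 37 °C in 2 mM Ca-tyrode buffer with 5 μg/ml coelenterazine. Agonist-evoked calcium luminescence read immediately; inhibition seen as signal decrease.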

human P2X3 receptor [2] = biological target: T2, human P2X3 receptor; test: Intracellular calcium measurement, antagonist activity at human P2X3 receptors (hP2X3 1321N1), Fluo8; parameters: expressed in transfected cells; host or cells: human astrocytoma 1321N1 (1312N1 [sic]); settings: column 3); 1321N1 cells, human P2X3, Fluo8, agonist ATP at EC50
Description: as §1, §2, §3

Row | Structure (SMILES) | IC50 (human P2X2/3 receptors) [nM] | hP2X23/hP2X3* Selectivity (1321N1) (human P2X2/3 receptors) | IC50 (human P2X3 receptor [1]) [nM] | IC50 (human P2X3 receptor [2]) [nM]
1 | CCc1cc2n(CC(=O)Nc3ccc(F)cn3)c3c(c(=O)n2n1)CN(C1CCN(C(=O)C(F)F)C1)C3=O (stereo not drawn) [Example 266] | > 32000 | >101 | 270 | 317
2 | CC(C)N1Cc2c(n(CC(=O)Nc3ccc(F)cn3)c3cc(C4CCOCC4)nn3c2=O)C1=O [Example 58] | 9850 | 277 | 24 | 36
3 | CCc1cc2n(CC(=O)Nc3ccc(F)cn3)c3c(c(=O)n2n1)CN(CC1CCCO1)C3=O (racemic) [Example 77, 2-{2-ethyl-5,8-dioxo-6-[(±)-tetrahydrofuran-2-ylmethyl]-5,6,7,8-tetrahydro-4H-pyrazolo[1,5-a]pyrrolo[3,4-d]pyrimidin-4-yl}-N-(5-fluoropyridin-2-yl)acetamide] | 9050 | 49 | 102 | 185
4 | CCc1cc2n(CC(=O)Nc3ccc(C)cn3)c3c(c(=O)n2n1)CN(CC1CCOC1)C3=O (stereo not drawn) [Example 61] | > 23000 | >12 | 695 | 1930
5 | COC[C@H](C)N1Cc2c(n(CC(=O)Nc3ccc(F)cn3)c3cc(-c4ccncc4C)nn3c2=O)C1=O [Example 152, N-(5-fluoropyridin-2-yl)-2-{6-[(2S)-1-methoxypropan-2-yl]-2-(3-methylpyridin-4-yl)-5,8-dioxo-5,6,7,8-tetrahydro-4H-pyrazolo[1,5-a]pyrrolo[3,4-d]pyrimidin-4-yl}acetamide] | 1460 | 328 | 9 | 4
6 | CC(C)N1Cc2c(n(CC(=O)Nc3ccc(F)cn3)c3cc(C4=CCN(C(=O)OC(C)(C)C)CC4)nn3c2=O)C1=O [Example 143, tert-butyl 4-[4-{2-[(5-fluoropyridin-2-yl)amino]-2-oxoethyl}-5,8-dioxo-6-(propan-2-yl)-5,6,7,8-tetrahydro-4H-pyrazolo[1,5-a]pyrrolo[3,4-d]pyrimidin-2-yl]-3,6-dihydropyridine-1(2H)-carboxylate] | 6600 | 197 | 20 | 34
7 | CCc1cc2n(CC(=O)Nc3ccc(F)cn3)c3c(c(=O)n2n1)CN(CC1CCN(C(=O)OC(C)(C)C)CC1)C3=O [Example 89] | 6550 | 49 | 64 | 135
8 | CC(C)N1Cc2c(n(CC(=O)Nc3ccc(F)cn3)c3cc(NC(=O)CO)nn3c2=O)C1=O [Example 289, N-[4-{2-[(5-fluoropyridin-2-yl)amino]-2-oxoethyl}-5,8-dioxo-6-(propan-2-yl)-5,6,7,8-tetrahydro-4H-pyrazolo[1,5-a]pyrrolo[3,4-d]pyrimidin-2-yl]-2-hydroxyacetamide] | > 32000 | >55 | 245 | 587
9 | CC(C)N1Cc2c(n(CC(=O)Nc3ccc(F)cn3)c3cc(NC(=O)c4cnn[nH]4)nn3c2=O)C1=O [Example 286] | 8200 | 248 | 22 | 33
10 | CC(C)N1Cc2c(n(CC(=O)Nc3ccc(F)cn3)c3cc(C(C)(C)O)nn3c2=O)C1=O [Example 88] | > 23500 | >423 | 115 | 56
11 | CCc1cc2n(CC(=O)Nc3ccc(F)cn3)c3c(c(=O)n2n1)CN(C[C@@H]1COCCN1C(C)C)C3=O [Example 260] | > 20600 | >146 | 108 | 141
12 | CCOC(=O)c1cc2n(CC(=O)Nc3ccc(F)cn3)c3c(c(=O)n2n1)CN(C(C)C)C3=O [Example 70, ethyl 4-{2-[(5-fluoropyridin-2-yl)amino]-2-oxoethyl}-5,8-dioxo-6-(propan-2-yl)-5,6,7,8-tetrahydro-4H-pyrazolo[1,5-a]pyrrolo[3,4-d]pyrimidine-2-carboxylate] | 1800 | 51 | 16 | 36

Other lines, results leading:

Row | IC50 (human P2X2/3 receptors) [nM] | hP2X23/hP2X3* Selectivity (1321N1) (human P2X2/3 receptors) | IC50 (human P2X3 receptor [1]) [nM] | IC50 (human P2X3 receptor [2]) [nM] | Structure (SMILES)
13 | 2300 | 128 | 36 | 18 | CC(C)N1Cc2c(n(CC(=O)Nc3ccc(F)cn3)c3cc(NC4CC4)nn3c2=O)C1=O [Example 167, 2-[2-(cyclopropylamino)-5,8-dioxo-6-(propan-2-yl)-5,6,7,8-tetrahydro-4H-pyrazolo[1,5-a]pyrrolo[3,4-d]pyrimidin-4-yl]-N-(5-fluoropyridin-2-yl)acetamide]
14 | > 21000 | >61 | 425 | 345 | CCc1cc2n(CC(=O)Nc3ccc(F)cn3)c3c(c(=O)n2n1)CN(CCN)C3=O [Example 245, 2-[6-(2-aminoethyl)-2-ethyl-5,8-dioxo-5,6,7,8-tetrahydro-4H-pyrazolo[1,5-a]pyrrolo[3,4-d]pyrimidin-4-yl]-N-(5-fluoropyridin-2-yl)acetamide]
15 | 5450 | 98 | 81 | 56 | CCc1cc2n(CC(=O)Nc3ccc(Cl)cn3)c3c(c(=O)n2n1)CN(C(C)C)C3=O [Example 66]
16 | 1870 | 239 | 6 | 8 | CC(C)Cc1cc2n(CC(=O)Nc3ccc(F)cn3)c3c(c(=O)n2n1)CN(C(C)C)C3=O [Example 82]
17 | > 32000 | >121 | 125 | 265 | COCc1cc2n(CC(=O)Nc3ccc(F)cn3)c3c(c(=O)n2n1)CN(C(C)C)C3=O [Example 57]
18 | 1660 | 160 | 17 | 10 | CCc1cc2n(CC(=O)Nc3ccc(F)cn3)c3c(c(=O)n2n1)CN(CCNC(=O)OC(C)(C)C)C3=O [Example 68, tert-butyl {2-[2-ethyl-4-{2-[(5-fluoropyridin-2-yl)amino]-2-oxoethyl}-5,8-dioxo-5,8-dihydro-4H-pyrazolo[1,5-a]pyrrolo[3,4-d]pyrimidin-6(7H)-yl]ethyl}carbamate]
19 | 6950 | 535 | 28 | 13 | COC[C@H](C)N1Cc2c(n(CC(=O)Nc3ccc(F)cn3)c3cc(C4CC4)nn3c2=O)C1=O [Example 101]
20 | 5150 | 21 | 55 | 240 | CCc1cc2n(CC(=O)Nc3ccc(Cl)cn3)c3c(c(=O)n2n1)CN(CC1CCCO1)C3=O (stereo not drawn) [Example 62]
21 | > 21500 | >13 | 470 | 1670 | CCc1cc2n(CC(=O)Nc3ccc(F)cn3)c3c(c(=O)n2n1)CN(C1CCN(C(=O)OC(C)(C)C)CC1)C3=O [Example 76]
